Non-standard residues stand in square brackets, D forms with d. Aib = CC(C)(N)C(=O)O

One data set concerns primary EOC cells. The data set can be described thus: Adhesion of primary EOC cells onto matrix proteins monitored in real time (xCELLigence). Format: cell-based, human. On the procedure: This assay was performed using E-16-well plates and the xCELLigence Real Time Cell Analysis technology. Bottom wells were coated with serum-free medium, 5 μg mL Vn, 5 μg mL Fn, 5 μg mL Lm or 15 μg mL Coll diluted in serum-free medium prior to seeding cells (1 × 10^4 cells/well) suspended in serum-free medium. Cells that adhere to the bottom of plates cause impedance changes which are proportional to the number of cells. The impedance value of each well was automatically monitored in real-time for at least 2 h and expressed as a cell index value. The experiments were performed three times in quadruplicate.
Fig. 6 RI-3 prevents EOC cell adhesion and subsequent invasion of mesothelium. a Adhesion of primary EOC cells on E-plates coated with 1% BSA (CTRL), 5 μg mL Vn, 5 μg mL Fn, 5 μg mL Lm or 15 μg mL Coll, with/without 10 nM RI-3, monitored in real time for 5 h by the xCELLigence system. Data represent mean ± SD from a quadruplicate experiment representative of 3 replicates. b-c Adhesion of EOC cells onto Vn in the absence or presence of 10 nM RI-3, monitored in real time for 3 h by the xCELLigence system. […] At the indicated times, cell associated fluorescence was assessed by a fluorescence plate reader. […] Cells invasion was monitored in real-time as changes in Cell Index due to breaking of the monolayer integrity (e). […]

In the next data set the test system is SKOV-3 cells. The data set can be described thus: GFP-SKOV-3 cell adhesion onto mesothelium (HPMC monolayer). It counts as cell-based, Human. The settings on record: means of three independent experiments in triplicate. On the procedure: (§1) HPMCs (1 × 10^5 cells/well) suspended in growth medium, were seeded in 24-well plates and allowed to adhere for about 20 h until they form a confluent monolayer, prior to seeding GFP-tagged EOC cells suspended in growth medium plus diluents or 10 nM RI-3. At the indicated times, plates were accurately washed with PBS and cell-associated fluorescence was assessed by a fluorescence plate reader a fluorescence plate reader (Victor 3, Perkin Elmer), using 485 nm excitation and 535 nm emission filters. The experiments were performed three times in triplicate.

In a further data set the test system is A2780 cells. In words: HPMC invasion by A2780 cells monitored in real time. The settings on record: 10 nM RI-3; xCELLigence; quadruplicate representative of 2 replicates. It counts as cell-based, Human. On the procedure:
(§2) HPMCs (5 × 10^3 cells/well) suspended in growth medium, were seeded in E-16-well plates and allow to adhere for 18–20 h until they form a confluent monolayer, prior to seeding EOC cells (2 × 10^4 cells/well) in growth medium plus/minus 10 nM RI-3. When HPMCs are challenged with invading cells, there is a drop in electrical resistance within 2–4 h which is monitored in real-time as the Cell Index changes due to the rupture of mesothelium. The experiments were performed three times in quadruplicate.
Supplementary file 13046_2019_1465_MOESM1_ESM.zip: Additional file 1: Figure S1. Adhesion and mesothelial invasion properties of uPAR and FPR1 lacking EOC cells. a. […] analysis of human ovarian carcinoma A2780 cells with (CD87)-APC-conjugated anti-uPAR or PE-conjugated FPR1 antibodies. b. Cell adhesion of A2780 cells on 1% BSA (CTRL), Vn-, Fn-Lm or Coll-coated plates, in the presence or the absence of 10 nM RI-3. The number of adherent cells was expressed as a percentage of CTRL. Data are the means ± SD of three independent experiment. c. Mesothelium invasion by A2780 cells. […] Then, A2780 cells suspended in growth medium plus/minus 10 nM RI-3 were seeded onto the mesothelial cell monolayer and invasion of mesothelium by A2780 cells was monitored in real-time as changes in Cell Index due to breaking of the monolayer integrity. […]

The subject of another data set is EOC cells. In words: EOC cell adhesion to and crossing of mesothelial cell monolayers (summary statement). It counts as cell-based, human. The settings on record: EOC cells exposed to RI-3 or desensitized with an excess of SRSRY. Here is the method:
as §1, §2

The conditions of data set [1]: cited from earlier work. An excerpt: (§3) Human FPR1, originally identified in neutrophils, monocytes and macrophages, has been shown in recent years, to be expressed also in many non-myelocytic cells. Aberrant expression of FPR1 was detected in tumors of different origin and reported as a negative prognostic factor [29–31]. While the role of uPAR in favoring intra-abdominal dissemination of ovarian cancer cells is largely documented, no data regarding expression and possible role of FPR1 on the surface of ovarian cancer cells are currently available. In the past years, we generated synthetic peptides containing the s ...

Another data set has as its system FPR1. The settings on record: ref [36], cited from earlier work.
From the text: as §3

In data set [2] the test system is p38 MAPK and PI3K/AKT signaling cascades. The note with it: ref [36]; cited from earlier work.
From the text: as §3

Data set [3] deals with sarcoma and melanoma cells. The settings on record: dose dependent, ref [36], [37]; cited from earlier work.
From the text: as §3

For “Ac-[dY][dR][Aib][dR]-NH2 [RI-3, retro-inverso peptide, uPAR/FPR1 antagonist]”, in the data set on primary EOC cells (10 nM RI-3, 5 μg mL Vn, real time, slopes 10–120 min, quadruplicate representative of 3 replicates), the “reduction of primary EOC cell adhesion onto Vn” value was 55%. The “matrix selectivity of adhesion reduction, primary EOC cells” value in the data set on primary EOC cells (10 nM RI-3, Vn vs Fn, Coll, Lm, real time 5 h) is given as “exclusively reduced cell adhesion onto Vn”. The “reduction of cell associated fluorescence (SKOV-3 adhesion to mesothelium)” value came out at 57% in the data set with SKOV-3 cells (10 nM RI-3, after 5 min); 47% with SKOV-3 cells (10 nM RI-3, after 10 min); 58% in the data set with SKOV-3 cells (10 nM RI-3, after 20 min); 54% in the data set on SKOV-3 cells (10 nM RI-3, after 40 min). In the data set with A2780 cells, the “A2780 cell crossing of mesothelium” value is “ineffective”. Besides, in the data set with EOC cells, the “ability to cross mesothelial cell monolayers (abstract)” value is listed as “losing the ability to cross them”. Besides, the “stability in human serum” value in data set [1] is “stable in human serum”. For the same substance, the “competition for binding to FPR1” value in the data set with FPR1 (competes with fMLF and SRSRY) was “competes with fMLF and SRSRY for binding to FPR1”. Besides, the “SRSRY-induced FPR1 internalization” value in the data set with FPR1 is listed as “preventing SRSRY-induced FPR1 internalization”. For the same substance, in data set [2], the “p38 MAPK and PI3K/AKT signaling cascades” value is “preventing SRSRY-induced FPR1 internalization as well as p38 MAPK and PI3K/AKT signaling cascades”. Moreover, the “concentration range for overall 50% reduction of cell invasion” value in data set [3] was “nanomolar range”. In data set [3], the “concentration range for overall 50% reduction of cell migration” value was “picomolar”.
